The test system of assay [1] is 3T3-L1 mouse pre-adipocyte cells. The experiment in a line: Inhibition of lipid accumulation in differentiated adipocytes (Oil Red O). In kind it is cell-based. The settings on record: Mus musculus; at 0.5 μg/ml; 3T3-L1 (Table I). Here is the method: The inhibition of fat accumulation in the treated cells was compared with the mock treated differentiated adipocytes and percentage inhibition was measured.
One hundred thousand 3T3-L1 […] pre-adipocyte cells in Dulbecco's Modified Eagles Medium (DMEM) containing 10% Fetal Bovine Serum (FBS) were taken into each well of a 24-well plate and incubated for 48 h at 37° C. and 5% CO2. The differentiation of pre-adipocyte cells was initiated in a differentiation medium containing 10 μg/ml insulin, 1.0 μM dexamethasone, and 0.5 mM isobutylmethylxanthine (IBMX) for 48 h. After this the medium was replaced by DMEM containing 10 μg/ml insulin and incubated for 3 days. Then the differentiating cells were treated 10 μg/ml of Sphaeranthus indicus ethyl acetate extract (LI/DD-II/054A/01) and 0.5 μg/ml of 7-hydroxyfrullanolide (LI054A01) and maintained in the medium for another 3-5 days. The cells incubated with 0.1% DMSO were considered as the vehicle control. After the incubation period, cells were washed with phosphate buffered saline (PBS) and fixed with 10% buffered formalin for 1 h at room temperature. One small aliquot of cell suspension was separated for cell counting in hemocytometer chamber. Fixed cells were stained with Oil Red O solution to measure the cellular neutral lipid accumulation. Briefly, cells were washed with PBS, fixed with 10% buffered formalin and stained with Oil Red O solution (0.5 g in 100 ml isopropanol) for 10 min. After removing the staining solution, the dye retained in the cells will be eluted into isopropanol and OD measured at 550 nm. The inhibition of fat accumulation in the treated cells was compared with the mock treated differentiated adipocytes. The treated and control cells were also analyzed and compared for inhibition of lipid accumulation visually under microscope and recorded digitally in suitable image capture system. The anti-adipogenic activities shown by Sphaeranthus Indicus ethyl acetate extract (LI/DD-II/054A/01) and LIO054A01 are summarized in the following table.

A further assay concerns PPARγ. The experiment in a line: Immunoblot of PPARγ in 3T3-L1 adipocytes. In kind it is cell-based, mouse. The settings on record: immunoblot normalized with actin. The text has this:
The inventors have then evaluated the modulation of metabolic biomarkers those are primarily responsible for the adipogenesis processes, insulin resistance in type 2 diabetes, obesity, metabolic syndrome and other metabolic disorders such as Peroxisome proliferator-activated receptor gamma (PPARγ), CD36, adipocyte fatty acid binding protein 4 (FABP4 or aP2), Perilipin, and beta-3 Adrenergic Receptor (β3AR) during adipogenesis process in 3T3-L1 adipocytes by ethyl actate extract (LI/DD-II/054A/01) of Sphaeranthus indicus and 7-hydroxyfrullanolide (LI054A01) using an immunoblot assay. […] The protein extracts were evaluated by immunoblot assay, and the immuno-reactive bands were developed with West-pico chemiluminescent substrate and the blot images were captured in a Kodak Image Station, normalized with expression of actin.
Experimental protocol: Mouse pre-adipocyte 3T3-L1 cells are maintained in Dulbecco's Modified Eagles Medium (DMEM) supplemented with 2 mM glutamine, 4.5 g/L glucose and 10% fetal bovine serum. […] Protein content was measured in Bradford method by using Coomassie blue dye and cell lysates were stored in aliquots at −80° C. until further use. […]
Inhibition of protein expression of biomarker molecules adipocytes in presence or absence of Sphaeranthus indicus extract LI/DD-II/054A/01 and 7-hydroxyfrullanolide (LI054A01) was evaluated in immunoblot assay. […]
(A western blot detects proteins with antibodies after separation by electrophoresis.)

By inhibition is commonly meant the drop in the measured response relative to a control, in per cent. As for `C=C1C(=O)O[C@H]2C3=C(C)CCC[C@]3(C)CC[C@@]12O` [LI054A01, 7-α-hydroxy-4,11(13)-eudesmadien-12,6-olide], in assay [1], the inhibition at 0.5 µg/mL came to 68.7%. In addition, the PPARγ protein level entry with PPARγ is reported as “potently ameliorated”.

Values taken from US9241964B2, “Composition from Sphaeranthus indicus and Garcinia mangostana for the control of metabolic syndrome” (LAILA NUTRACEUTICALS, priority 2009, dated 2016).
